# Measured values published in patent US20260234165A1, “MACROCYCLIC COMPOUNDS, PREPARATION METHOD THEREFOR, AND USE THEREOF” (GENFLEET THERAPEUTICS (SHANGHAI) INC., priority 2004, published 2026).
# Where a name gives a salt, the structure may show the parent alone. Read-outs that look alike come from different tables or passages of the source.
# Assays:
# Format in all cases: cell-based, human
# [1] = tested on: AsPC-1 cells (KRAS G12D mutation); experiment: 3D cell proliferation assay (CellTiter Glo-3D), AsPC-1; settings: medium with 2% FBS, read-out: AsPC-1 AP IC50
# How it was run: (§1)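 800 cells/well (NCI-H441, […]; AsPC-1, KRAS G12D), low-serum RPMI-1640 (2% FBS), overnight attach; 3.16-fold serial dilutions added, 0.1% DMSO; 5 d, 37 °C; CellTiter-Glo 3D RLU; IC50, 4-parameter fit.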
# [2] = tested on: p-ERK in AsPC-1 cells (KRAS G12D mutation); experiment: Cell p-ERK assay (HTRF) in AsPC-1 cells; settings: AsPC-1 cells, 3 h compound incubation, HTRF p-ERK T202/Y204, read-out: AsPC-1 p-ERK IC50
# How it was run: (§2)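 Seed 10000 AsPC-1 or 20000 NCI-H441 cells/well, overnight 37 °C/5% CO2. Cpd 3.16-fold series, 0.1% DMSO final, 3 h. Lyse 30 min, HTRF p-ERK (T202/Y204) Ab 4 h. IC50: 4-parameter fit of IR% normalised to DMSO and blank.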
# [3] = tested on: p-ERK in NCI-H441 cells (KRAS G12V mutation); experiment: Cell p-ERK assay (HTRF) in NCI-H441 cells; settings: NCI-H441 cells, 3 h compound incubation, HTRF p-ERK T202/Y204, read-out: H441 p-ERK IC50
# How it was run: as §2
# NCI-H441 cells = experiment: 3D cell proliferation assay (CellTiter Glo-3D), NCI-H441; settings: medium with 2% FBS, read-out: H441 AP IC50
# How it was run: as §1
# [4] = Homo sapiens, ASPC1, 3D cell proliferation (CellTiter Glo-3D)
# [5] = Homo sapiens, NCI-H441, 3D cell proliferation (CellTiter Glo-3D)
# [6] = 3D cell proliferation (CellTiter Glo-3D)
"IC50 [1, 4]","IC50 ([2]; Homo sapiens, ASPC1, 3 h)","IC50 ([3]; Homo sapiens, NCI-H441, 3 h)",IC50 (NCI-H441 cells; [5]),"IC50 [1, 6]",IC50 [2],IC50 [3],IC50 (NCI-H441 cells; [6]),SMILES
28.3 nM,18.7 nM,9.86 nM,7.54 nM,–,–,–,–,"CCn1c(-c2cc([C@H]3CCN4CCOC[C@H]4C3)cnc2[C@H](C)OC)c2c3cc(ccc31)-c1csc(n1)C[C@H](NC(=O)[C@H]1[C@H](C)[C@@H]1C)C(=O)N1CCC[C@H](N1)C(=O)OCC1(CC1)C2 (single isomer, unassigned) [Compound Z78]"
19.3 nM,24.1 nM,9.7 nM,6.59 nM,–,–,–,–,"CCn1c(-c2cc([C@H]3CCN4CCOC[C@@H]4C3)cnc2[C@H](C)OC)c2c3cc(ccc31)-c1csc(n1)C[C@H](NC(=O)[C@H]1[C@H](C)[C@@H]1C)C(=O)N1CCC[C@H](N1)C(=O)OCC1(CC1)C2 (single isomer, unassigned) [Compound Z79]"
19 nM,25.3 nM,11.7 nM,7.27 nM,–,–,–,–,"CCn1c(-c2cc([C@@H]3CCN4CCOC[C@H]4C3)cnc2[C@H](C)OC)c2c3cc(ccc31)-c1csc(n1)C[C@H](NC(=O)[C@H]1[C@H](C)[C@@H]1C)C(=O)N1CCC[C@H](N1)C(=O)OCC1(CC1)C2 (single isomer, unassigned) [Compound Z80]"
18.3 nM,10.8 nM,5.48 nM,7.33 nM,–,–,–,–,"CCn1c(-c2cc(OCC34CCCN3CCC4)cnc2[C@H](C)OC)c2c3cc(ccc31)-c1csc(n1)C[C@H](NC(=O)[C@H]1[C@H](C)[C@@H]1C)C(=O)N1CCC[C@H](N1)C(=O)OCC1(CC1)C2 (single isomer, unassigned) [Compound Z339]"
–,–,–,–,6.52 nM,4.13 nM,1.7 nM,4.73 nM,"CCn1c(-c2cc(C#C[C@@H]3CCCN3C)cnc2[C@H](C)OC)c2c3cc(ccc31)-c1csc(n1)C[C@H](NC(=O)[C@H]1[C@H](C)[C@@H]1C)C(=O)N1CCC[C@H](N1)C(=O)OCC(C)(C)C2 (single isomer, unassigned) [Compound Z598A]"
4.51 nM,3.35 nM,1.56 nM,1.58 nM,–,–,–,–,"CCn1c(-c2cc(OCCN3CCP(C)(=O)CC3)cnc2[C@H](C)OC)c2c3cc(ccc31)-c1csc(n1)C[C@H](NC(=O)[C@H]1[C@H](C)[C@@H]1C)C(=O)N1CCC[C@H](N1)C(=O)OCC(C)(C)C2 (single isomer, unassigned) [Compound Z780]"
1.28 nM,0.95 nM,0.51 nM,1.21 nM,–,–,–,–,"CCn1c(-c2cc(C#CCN3CCCOCC3)c[n+]([O-])c2[C@H](C)O)c2c3cc(ccc31)-c1csc(n1)C[C@H](NC(=O)[C@H]1[C@H](C)[C@@H]1C)C(=O)N1CCC[C@H](N1)C(=O)OCC(C)(C)C2 (single isomer, unassigned) [Compound Z1039]"
–,–,–,–,0.88 nM,0.31 nM,0.31 nM,0.51 nM,CCn1c(-c2cc(N3CCN4CCOC[C@@H]4C3)cnc2[C@H](C)OC)c2c3cc(ccc31)-c1csc(n1)C[C@H](NC(=O)[C@H]1[C@H](C)[C@@H]1C)C(=O)N1CCC[C@H](N1)C(=O)OCC(C)(C)C2 [Compound Z72]
56.5 nM,38.7 nM,18.6 nM,19.4 nM,–,–,–,–,"CCn1c(-c2cc(C3(C(=O)N4CCN(C)CC4)CC3)cnc2[C@H](C)OC)c2c3cc(ccc31)-c1csc(n1)C[C@H](NC(=O)[C@H]1[C@H](C)[C@@H]1C)C(=O)N1CCC[C@H](N1)C(=O)OCC(C)(C)C2 [Compound Z75, (1r,2R,3S)—N-((6^3S,4S,Z)-1^1-ethyl-1^2-(2-((S)-1-methoxyethyl)-5-(1-(4-methylpiperazine-1-carbonyl)cyclopropyl)pyridin-3-yl)-10,10-dimethyl-5,7-dioxo-6^1,6^2,6^3,6^4,6^5,6^6-hexahydro-1^1H-8-oxa-2(4,2)-thiazola-1(5,3)-indola-6(1,3)-pyridazinacycloundecaphane-4-yl)-2,3-dimethylcyclopropane-1-carboxamide]"
30.3 nM,19.2 nM,19 nM,29.9 nM,–,–,–,–,"CCn1c(-c2cc(N(C)CC3COCCN3C)cnc2[C@H](C)OC)c2c3cc(ccc31)-c1csc(n1)C[C@H](NC(=O)[C@H]1[C@H](C)[C@@H]1C)C(=O)N1CCC[C@H](N1)C(=O)OCC(C)(C)C2 (stereo partly drawn) [Compound Z76, (1r,2R,3S)—N-((6^3S,4S,Z)-1^1-ethyl-1^2-(2-((S)-1-methoxyethyl)-5-(methyl((4-methylmorpholin-3-yl)methyl)amino)pyridin-3-yl)-10,10-dimethyl-5,7-dioxo-6^1,6^2,6^3,6^4,6^5,6^6-hexahydro-11H-8-oxa-2(4,2)-thiazola-1(5,3)-indola-6(1,3)-pyridazinacycloundecaphane-4-yl)-2,3-dimethylcyclopropane-1-carboxamide]"
3.42 nM,2.01 nM,1.7 nM,2.03 nM,–,–,–,–,"CCn1c(-c2cc(N3CCN(C4(c5cccc(C)n5)CC4)CC3)cnc2[C@H](C)OC)c2c3cc(ccc31)-c1csc(n1)C[C@H](NC(=O)[C@H]1[C@H](C)[C@@H]1C)C(=O)N1CCC[C@H](N1)C(=O)OCC(C)(C)C2 [Compound Z81, (1r,2R,3S)—N-((6^3S,4S,Z)-1^1-ethyl-2-(2-((S)-1-methoxyethyl)-5-(4-(1-(6-methylpyridin-2-yl)cyclopropyl)piperazin-1-yl)pyridin-3-yl)-10-10-dimethyl-5,7-dioxo-6^1,6^2,6^3,6^4,6^5,6^6-hexahydro-1^1H-8-oxa-2(4,2)-thiazola-1(5,3)-indola-6(1,3)-pyridazinacycloundecaphane-4-yl)-2,3-dimethylcyclopropane-1-carboxamide formate]"
–,–,–,–,0.77 nM,0.43 nM,0.75 nM,0.48 nM,"CCn1c(-c2cc(OCCN3CCOC4(CC4)C3)cnc2[C@H](C)OC)c2c3cc(ccc31)-c1csc(n1)C[C@H](NC(=O)[C@H]1[C@H](C)[C@@H]1C)C(=O)N1CCC[C@H](N1)C(=O)OCC(C)(C)C2 [Compound Z83, (1r,2R,3S)—N-((6^3R,4R,Z)-1^2-(5-(2-(4-oxa-7-azaspiro[2,5]octan-7-yl)ethoxy)-2-((S)-1-methoxyethyl)pyridin-3-yl)-1′-ethyl-10,10-dimethyl-5,7-dioxo-6^1,6^2,6^3,6^4,6^5,6^6-hexahydro-1^1H-8-oxa-2(4,2)-thiazola-1(5,3)-indola-6(1,3)-pyridazinacycloundecaphane-4-yl)-2,3-dimethylcyclopropane-1-carboxamide]"
–,–,–,–,51.9 nM,15.7 nM,8.74 nM,23.1 nM,"CCn1c(-c2cc(OCC3(N4CCCOCC4)CC3)cnc2[C@H](C)OC)c2c3cc(ccc31)-c1csc(n1)C[C@H](NC(=O)[C@H]1[C@H](C)[C@@H]1C)C(=O)N1CCC[C@H](N1)C(=O)OCC1(CC1)C2 [Compound Z329, (1r,2R,3S)—N-((3′S,4′S,Z)-2′-(5-((1-(1,4-oxazepan-4-yl)cyclopropyl)methoxy)-2-((S)-1-methoxyethyl)pyridin-3-yl)-1′-ethyl-5′,7′-dioxospiro[cyclopropane-1,10′-8-oxa-2(4,2)-thiazola-1(5,3)-indola-6(1,3)-pyridazinacycloundecaphan]-4′-yl)-2,3-dimethylcyclopropane-1-carboxamide]"
29.2 nM,18.8 nM,10.9 nM,18.6 nM,–,–,–,–,CCn1c(-c2cc(OCC3(N4CCC4)CC3)cnc2[C@H](C)OC)c2c3cc(ccc31)-c1csc(n1)C[C@H](NC(=O)[C@H]1[C@H](C)[C@@H]1C)C(=O)N1CCC[C@H](N1)C(=O)OCC1(CC1)C2 [Compound Z333]
–,16.3 nM,–,–,53.4 nM,–,9.1 nM,19.7 nM,"CO[C@@H](C)c1ncc(OCCN2CCOC3(CC3)C2)cc1-c1c2c3cc(ccc3n1CC(F)(F)F)-c1csc(n1)C[C@H](NC(=O)[C@H]1[C@H](C)[C@@H]1C)C(=O)N1CCC[C@H](N1)C(=O)OCC1(CC1)C2 [Compound Z350, (1r,2R,3S)—N-((3′S,4′S,Z)-2′-(5-(2-(4-oxa-7-azaspiro[2.5]octan-7-yl)ethoxy)-2-((S)-1-methoxyethyl)pyridin-3-yl)-5′,7′-dioxo-1′-(2,2,2-trifluoroethyl)spiro[cyclopropane-1,10′-8-oxa-2(4,2)-thiazola-1(5,3)-indola-6(1,3)-pyridazinacycloundecaphan]-4-yl)-2,3-dimethylcyclopropane-1-carboxamide]"
–,–,–,–,2.38 nM,2.66 nM,2.61 nM,2.25 nM,"CCn1c(-c2cc(C#CCN3CCC3)cnc2[C@H](C)OC)c2c3cc(ccc31)-c1csc(n1)C[C@H](NC(=O)[C@H]1[C@H](C)[C@@H]1C)C(=O)N1CCC[C@H](N1)C(=O)OCC(C)(C)C2 [Compound Z361, (1r,2R,3S)—N-((6^3S,4S,Z)-1-(5-(3-(azetidin-1-yl)prop-1-yn-1-yl)-2-((S)-1-methoxyethyl)pyridin-3-yl)-1^1-ethyl-10,10-dimethyl-5,7-dioxo-6^1,6^2,6^3,6^4,6^5,6^6-hexahydro-1^1H-8-oxa-2(4,2)-thiazola-1(5,3)-indola-6(1,3)-pyridazinacycloundecaphane-4-yl)-2,3-dimethylcyclopropane-1-carboxamide formate]"
